Our source for the IC50 values is patent publication US5622948A, “Pyrrole pyridazine and pyridazinone anti-inflammatory agents” (Syntex (U.S.A.) Inc., priority 1994, dated 1997).

Bounds are passed on as bounds.

One assay has as its target T1, COX II (Homo sapiens, UniProt P35354).
T1 sequence (P35354 18-604): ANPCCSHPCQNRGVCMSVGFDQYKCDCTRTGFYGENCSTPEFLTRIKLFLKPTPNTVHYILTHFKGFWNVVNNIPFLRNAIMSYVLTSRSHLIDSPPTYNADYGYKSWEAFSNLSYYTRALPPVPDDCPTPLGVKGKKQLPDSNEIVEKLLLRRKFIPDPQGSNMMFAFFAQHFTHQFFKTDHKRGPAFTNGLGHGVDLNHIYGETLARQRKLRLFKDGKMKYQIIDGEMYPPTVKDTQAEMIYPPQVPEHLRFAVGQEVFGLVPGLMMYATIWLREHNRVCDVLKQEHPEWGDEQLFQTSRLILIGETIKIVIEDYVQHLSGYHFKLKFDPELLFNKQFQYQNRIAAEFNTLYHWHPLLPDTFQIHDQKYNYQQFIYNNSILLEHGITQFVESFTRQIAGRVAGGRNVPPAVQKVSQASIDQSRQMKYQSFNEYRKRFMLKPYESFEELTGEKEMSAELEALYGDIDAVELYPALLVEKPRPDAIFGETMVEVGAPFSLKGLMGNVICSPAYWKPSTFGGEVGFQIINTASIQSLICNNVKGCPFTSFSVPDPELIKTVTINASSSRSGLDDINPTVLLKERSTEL
Nature of the assay: radiometric assay, COX II inhibition (human recombinant, baculovirus expressed, partially purified). Details: A 1.8 Kb DNA fragment containing the coding region of human COX II was generated by PCR; made in house; host or cells: Sf9 insect cells, baculovirus. As to conditions: radiometric assay, human recombinant baculovirus expressed enzyme; read-out: COX II IC50 (Table 2). It counts as biochemical. As to the method:
(§1) Human prostaglandin G/H synthase I and II ("COX I" and "COX II") were expressed in the baculovirus expression system and purified to high levels.
(§2) As described above, human recombinant COX I and COX II were cloned and expressed in a baculovirus system. Partially purified COX I and COX II enzymes were used for screening compounds for their ability to inhibit COX I and COX II activity, as described below.
(§3) Compound (16), in 2 μl DMSO, and control samples (carrier vehicles only) were mixed with COX I or COX II samples (e.g. fractions from the chromatography columns) in polypropylene tubes and preincubated with 2 mM phenol for 5 minutes and then with 1 μM hematin for an additional 5 minutes. The 150 μl reaction mixture consisted of 50 mM Tris --HCl, pH 7.9, 2 mM EDTA, 10% glycerol, 200 μM phenol, 1 μM hematin, 1-25 μl sample and 20 μM 1-[^14 C] arachidonate (80.000-100.000 cpm/tube). After 45 seconds at room temperature, the reaction was terminated by adding 200 μl of 2N HCl and 750 μl water. An aliquot (950 μl) of the reaction mixture was loaded onto a 1 ml C~ Sep-Pak (J. T. Baker, Phillipsburg, N.J.) which had been previously washed with 2-3 ml methanol and equilibrated with 5-6 ml distilled water. Oxygenated products were quantitatively eluted with 3 ml of acetonitrile, H2 O and acetic acid (50:50:0.1, v/v) and the radioactivity in the eluate determined in a scintillation counter.
(§4) Human recombinant 10 min incubation with Compound (16)
(§5) baculovirus 45 sec incubation with 20 μM AA
(§6) partially purified Separation of radioactive products

A further assay concerns the target COX I (Homo sapiens, UniProt P23219). Put plainly: radiometric assay, COX I inhibition (human recombinant, baculovirus expressed, partially purified). The format is biochemical. Details: A 2 Kb fragment containing the coding region of COX I; made in house; host or cells: Sf9 insect cells, baculovirus (cDNA from Oxford Biomedical Research). Conditions: radiometric assay, human recombinant baculovirus expressed enzyme; read-out: COX I IC50 (Table 2). The protocol: as §1, §2, §3, §4, §5, §6

Chain of COX I (P23219 24-599): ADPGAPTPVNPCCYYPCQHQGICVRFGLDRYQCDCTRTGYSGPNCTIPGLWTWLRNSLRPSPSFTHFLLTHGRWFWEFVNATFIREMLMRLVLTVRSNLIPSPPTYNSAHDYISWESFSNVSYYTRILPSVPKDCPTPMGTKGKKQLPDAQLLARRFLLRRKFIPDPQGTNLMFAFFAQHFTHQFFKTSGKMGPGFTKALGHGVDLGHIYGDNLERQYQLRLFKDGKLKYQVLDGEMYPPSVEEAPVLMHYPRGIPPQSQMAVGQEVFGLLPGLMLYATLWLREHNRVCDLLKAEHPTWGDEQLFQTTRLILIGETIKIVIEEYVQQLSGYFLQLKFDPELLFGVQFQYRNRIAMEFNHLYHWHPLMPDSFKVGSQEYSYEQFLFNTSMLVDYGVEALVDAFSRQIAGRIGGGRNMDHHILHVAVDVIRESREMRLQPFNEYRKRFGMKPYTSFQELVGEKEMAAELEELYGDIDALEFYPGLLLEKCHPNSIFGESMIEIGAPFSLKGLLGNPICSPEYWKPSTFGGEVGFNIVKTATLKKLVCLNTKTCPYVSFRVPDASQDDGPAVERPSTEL

As to “6-(5-benzoyl-3-chloro-4-methyl-1H-pyrrol-2-ylmethyl)-2H-pyridazin-3-one [Compound 89]”, the half-inhibitory concentration (IC50) at COX II was found to be 2.3 µM; on COX I, 8.1 µM.
The matching figures for `Cc1cc(C(C#N)c2ccc(=O)[nH]n2)n(C)c1C(=O)c1ccc(Cl)cc1` (stereo not drawn) [Compound 9, [5-(4-chloro-benzoyl)-1,4-dimethyl-1H-pyrrol-2-yl]-(6-oxo-1,6-dihydro-pyridazin-3-yl)acetonitrile]: 0.63 µM and more than 100 µM.
As to `Cc1cc(C(C)c2ccc(=O)[nH]n2)n(C)c1C(=O)c1ccc(Cl)cc1` (stereo not drawn) [Compound 18, 6-{1-[5-(4-chloro-benzoyl)-1,4-dimethyl-1H-pyrrol-2-yl]-ethyl}-2H-pyridazin-3-one], the results for the concentration for half-maximal inhibition (IC50) at COX II and at COX I were 1.5 µM and 15 µM, respectively.
The corresponding values for `Cc1c(Cl)c(Cc2ccc(=O)[nH]n2)n(C)c1C(=O)c1ccc(Cl)cc1` [Compound 24, 6-[3-chloro-5-(4-chloro-benzoyl)-1,4-dimethyl-1H-pyrrol-2-ylmethyl]-2H-pyridazin-3-one] are 0.7 µM and 440 µM.
For `Cc1c(Br)c(Cc2ccc(=O)[nH]n2)n(C)c1C(=O)c1ccc(Cl)cc1` [Compound 25, 6-[3-bromo-5-(4-chloro-benzoyl)-1,4-dimethyl-1H-pyrrol-2-ylmethyl]-2H-pyridazin-3-one], the IC50 at COX II turned out to be 1.8 µM; on COX I it was 277 µM.
Consider `Cc1ccc(C(=O)c2c(C)cc(Cc3ccc(=O)[nH]n3)n2C)cc1` [Compound 30, 6-[1,4-dimethyl-5-(4-methyl-benzoyl)-1H-pyrrol-2-ylmethyl]-2H-pyridazin-3-one], for which the values for the half-maximal inhibitory concentration (IC50) on COX II and at COX I were 0.5 µM and 40 µM, respectively.
`COc1ccc(C(=O)c2c(C)cc(Cc3ccc(=O)[nH]n3)n2C)cc1` [Compound 31, 6-[1,4-dimethyl-5-(4-methoxy-benzoyl)-1-H-pyrrol-2-ylmethyl]-2H-pyridazin-3-one]: the concentration for half-maximal inhibition (IC50) was determined as 0.2 µM at COX II and 35 µM at COX I.
The corresponding values for `Cc1cc(Cc2ccc(=O)[nH]n2)n(C)c1C(=O)c1ccccc1` [Compound 32, 6-[5-benzoyl-1,4-dimethyl-1H-pyrrol-2-ylmethyl]-2H-pyridazin-3-one] are 1.5 µM and 26.7 µM.
The corresponding values for `C=Cc1ccc(C(=O)c2c(C)cc(Cc3ccc(=O)[nH]n3)n2C)cc1` [Compound 33, 6-[1,4-dimethyl-5-(4-vinyl-benzoyl)-1H-pyrrol-2-ylmethyl]-2H-pyridazin-3-one] are 0.44 µM and 31.7 µM.
The corresponding values for `Cc1cc(Cc2ccc(=O)[nH]n2)n(C)c1C(=O)c1ccc(Br)cc1` [Compound 35, 6-[5-(4-bromo-benzoyl)-1,4-dimethyl-1H-pyrrol-2-ylmethyl]-2H-pyridazin-3-one] are 0.1 µM and 86 µM.
Turning to `CCc1ccc(C(=O)c2c(C)cc(Cc3ccc(=O)[nH]n3)n2C)cc1` [Compound 36, 6-[1,4-dimethyl-5-(4-ethyl-benzoyl)-1H-pyrrol-2-ylmethyl]-2H-pyridazin-3-one], the IC50 at COX II is 0.4 µM; on COX I, 38 µM.
The corresponding values for `Cn1c(Cc2ccc(=O)[nH]n2)ccc1C(=O)c1ccc(C2CC2)cc1` [Compound 42, 6-[5-(4-cyclopropyl-benzoyl)-1-methyl-1H-pyrrol-2-ylmethyl]-2H-pyridazin-3-one] are 0.72 µM and 82 µM.
Consider `CSc1ccc(C(=O)c2ccc(Cc3ccc(=O)[nH]n3)n2C)cc1` [Compound 43, 6-[1-methyl-5-(4-methylthio-benzoyl)-1H-pyrrol-2-ylmethyl]-2H-pyridazin-3-one], for which the figures for the IC50 on COX II and on COX I were 0.3 µM and 23 µM, respectively.
For `CCc1ccc(C(=O)c2ccc(Cc3ccc(=O)[nH]n3)n2C)cc1` [Compound 46, 6-[5-(4-ethyl-benzoyl)-1-methyl-1H-pyrrol-2-ylmethyl]-2H-pyridazin-3-one], the half-inhibitory concentration (IC50) was 7.2 µM at COX II and more than 100 µM at COX I.
The matching figures for `COc1ccc(C(=O)c2ccc(Cc3ccc(=O)[nH]n3)n2C)cc1` [Compound 53, 6-[5-(4-methoxy-benzoyl)-1-methyl-1H-pyrrol-2-ylmethyl]-2H-pyridazin-3-one]: 1 µM and 420 µM.
The matching figures for `C=Cc1ccc(C(=O)c2ccc(Cc3ccc(=O)[nH]n3)n2C)cc1` [Compound 54, 6-[1-methyl-5-(4-vinyl-benzoyl)-1H-pyrrol-2-ylmethyl]-2H-pyridazin-3-one]: 0.44 µM and 190 µM.
For the compound `Cn1c(Cc2ccc(=O)[nH]n2)ccc1C(=O)c1ccc(Br)cc1` [Compound 57, 6-[5-(4-bromo-benzoyl)-1-methyl-1H-pyrrol-2-ylmethyl]-2H-pyridazin-3-one], the half-inhibitory concentration (IC50) on COX II came to 4.6 µM; at COX I, 700 µM.
Regarding `Cn1c(Cc2ccc(=O)[nH]n2)ccc1C(=O)c1cccs1` [Compound 62, 6-[1-methyl-5-(thienyl-2-carbonyl)-1H-pyrrol-2-ylmethyl]-2H-pyridazin-3-one], the concentration for half-maximal inhibition (IC50) was found to be 7 µM on COX II and 140 µM on COX I.
The corresponding values for `Cc1ccc(C(=O)c2c(Cl)cc(Cc3ccc(=O)[nH]n3)n2C)cc1` [Compound 80, 6-[4-chloro-1-methyl-5-(4-methyl-benzoyl)-1H-pyrrol-2-ylmethyl]-2H-pyridazin-3-one] are 0.7 µM and not below 1000 µM.
Consider `Cn1c(Cc2ccc(=O)[nH]n2)cc(Cl)c1C(=O)c1ccc(Cl)cc1` [Compound 81, 6-[4-chloro-5-(4-chloro-benzoyl)-1-methyl-1H-pyrrol-2-ylmethyl]-2H-pyridazin-3-one], for which the IC50 at COX II is 0.44 µM; at COX I it was more than 300 µM.
Take `COc1ccc(C(=O)c2c(Cl)cc(Cc3ccc(=O)[nH]n3)n2C)cc1` [Compound 82, 6-[4-chloro-5-(4-methoxy-benzoyl)-1-methyl-1H-pyrrol-2-ylmethyl]-2H-pyridazin-3-one]: the IC50 at COX II is 0.81 µM; on COX I it was 20.6 µM.
Consider `Cc1ccc(C(=O)c2cc(Cl)c(Cc3ccc(=O)[nH]n3)n2C)cc1` [Compound 87, 6-[3-chloro-1-methyl-5-(4-methyl-benzoyl)-1H-pyrrol-2-ylmethyl]-2H-pyridazin-3-one], for which the IC50 on COX II was 0.9 µM; at COX I, more than 1000 µM.
As to `COc1ccc(C(=O)c2cc(Cl)c(Cc3ccc(=O)[nH]n3)n2C)cc1` [Compound 88, 6-[3-chloro-5-(4-methoxy-benzoyl)-1-methyl-1H-pyrrol-2-ylmethyl]-2H-pyridazin-3-one], the IC50 on COX II came out at 0.55 µM; at COX I it was 100 µM.
`Cc1ccc(C(=O)c2ccc(C(C)c3ccc(=O)[nH]n3)n2C)cc1` (stereo not drawn) [Compound 95, 6-{1-[1-methyl-5-(4-methyl-benzoyl)-1H-pyrrol-2-yl]-ethyl}-2H-pyridazin-3-one]: the IC50 at COX II is 1.3 µM; on COX I, 140 µM.
The corresponding values for `Cc1ccc(C(=O)c2ccc(Cc3ccc(=O)[nH]n3)n2C)cc1` [Compound 100, 6-[1-methyl-5-(4-methyl-benzoyl)-1H-pyrrol-2-ylmethyl]-2H-pyridazin-3-one] are 1.5 µM and 300 µM.
The matching figures for `Cc1ccc(C(=O)c2ccc(CC3=NNC(=O)CC3)n2C)cc1` [Compound 102, 6-[1-methyl-5-(4-methyl-benzoyl)-1H-pyrrol-2-ylmethyl]-4,5-dihydro-2H-pyridazin-3-one]: 3.1 µM and 260 µM.
As to `CSc1cc(Cc2ccc(=O)[nH]n2)n(C)c1C(=O)c1ccc(C)cc1` [Compound 107, 6-(1-methyl-5-(4-methyl-benzoyl)-4-methylthio-1H-pyrrol-2-ylmethyl)-2H-pyridazin-3-one], the IC50 at COX II is 2.3 µM; on COX I, 21 µM.
